Assays:
EGFR(WT) = EGFR(WT) (Homo sapiens, UniProt P00533); test: ELISA kinase activity detection, EGFR(WT); type: biochemical; conditions: ELISA-based EGFR-TK assay, ATP 5 μM; mean ± SD of at least two determinations
Experimental: (§1) Tyrosine kinase: EGFR(WT) • EGFR^T790M/L858R(LR/TM) • EGFR^T790M/L858R/[…](LR/TM/CS)
(§2) ELISA Kinase Activity Detection
Enzyme-Linked Immunosorbent Assay (ELISA) was used to detect the ability of a kinase to phosphorylate a substrate and calculate the inhibitory effect of a compound on the kinase activity. […]
(§3) The main steps of ELISA are listed as follows: the substrate Poly(Glu, Tyr) 4:1 was diluted with potassium ion-free PBS to 2.5 μg/well, incubated at 37° C. for 12-16 h to coat the ELISA plate for use. An ATP solution (final concentration of 5 μM) diluted with a reaction buffer (50 mM HEPES pH 7.4, 20 mM MgCl2, 0.1 mM MnCl2, 0.2 mM Na3VO4, 1 mM DTT) was added to each well. A compound or solvent control was added, and then a kinase was added to start the reaction at 37° C. in a shaker for 1 h. The plate was washed for three times with T-PBS, and 100 μL of antibody PY99 (diluted in T-PBS containing 5 mg/mL BSA, 1: 500) was added, and incubated in a shaker at 37° C. for 0.5 h. After washing the plate with T-PBS, 100 μL of horseradish peroxidase-labeled goat anti-mouse IgG (diluted in T-PBS containing 5 mg/mL BSA, 1: 2000) was added, and incubated in a shaker at 37° C. for 0.5 h. After washing the plate again, a developing liquid containing 0.03% H2O2, 2 mg/mL OPD (0.1 mol/L, in citrate buffer solution pH 5.4) was added at 100 μL/well, and incubated for 1-10 min at 25° C. in darkness. 50 μL/well of 2 M H2SO4 was added to quench the reaction, and read with a wavelength-tunable microplate reader (SpectraMax Plus384, Molecular Devices) at a wavelength of 490 nm. The IC50 value was obtained from the inhibition curve.

EGFR L858R/T790M (LR/TM) = EGFR L858R/T790M (LR/TM) (Homo sapiens, UniProt P00533, L858R/T790M); test: ELISA kinase activity detection, EGFR double mutant; type: biochemical; conditions: ELISA-based EGFR-TK assay, ATP 5 μM, mean ± SD
[1] = target: T1, EGFR L858R/T790M/C797S (LR/TM/CS) (Homo sapiens, UniProt P00533, C797S/L858R/T790M); test: ELISA kinase activity detection, EGFR triple mutant; type: biochemical; conditions: ELISA-based EGFR-TK assay, ATP 5 μM, mean ± SD
T1 construct: purchased BPS Bioscience
Experimental: as §1, §2
Enzyme-Linked Immunosorbent Assay (ELISA) was used to detect the ability of a kinase to phosphorylate a substrate and calculate the inhibitory effect of a compound on the kinase activity. The used kinase was EGFR L858R/T790M/C797S (purchased from BPS Bioscience).
as §3

Chain of EGFR(WT) (P00533 25-1210): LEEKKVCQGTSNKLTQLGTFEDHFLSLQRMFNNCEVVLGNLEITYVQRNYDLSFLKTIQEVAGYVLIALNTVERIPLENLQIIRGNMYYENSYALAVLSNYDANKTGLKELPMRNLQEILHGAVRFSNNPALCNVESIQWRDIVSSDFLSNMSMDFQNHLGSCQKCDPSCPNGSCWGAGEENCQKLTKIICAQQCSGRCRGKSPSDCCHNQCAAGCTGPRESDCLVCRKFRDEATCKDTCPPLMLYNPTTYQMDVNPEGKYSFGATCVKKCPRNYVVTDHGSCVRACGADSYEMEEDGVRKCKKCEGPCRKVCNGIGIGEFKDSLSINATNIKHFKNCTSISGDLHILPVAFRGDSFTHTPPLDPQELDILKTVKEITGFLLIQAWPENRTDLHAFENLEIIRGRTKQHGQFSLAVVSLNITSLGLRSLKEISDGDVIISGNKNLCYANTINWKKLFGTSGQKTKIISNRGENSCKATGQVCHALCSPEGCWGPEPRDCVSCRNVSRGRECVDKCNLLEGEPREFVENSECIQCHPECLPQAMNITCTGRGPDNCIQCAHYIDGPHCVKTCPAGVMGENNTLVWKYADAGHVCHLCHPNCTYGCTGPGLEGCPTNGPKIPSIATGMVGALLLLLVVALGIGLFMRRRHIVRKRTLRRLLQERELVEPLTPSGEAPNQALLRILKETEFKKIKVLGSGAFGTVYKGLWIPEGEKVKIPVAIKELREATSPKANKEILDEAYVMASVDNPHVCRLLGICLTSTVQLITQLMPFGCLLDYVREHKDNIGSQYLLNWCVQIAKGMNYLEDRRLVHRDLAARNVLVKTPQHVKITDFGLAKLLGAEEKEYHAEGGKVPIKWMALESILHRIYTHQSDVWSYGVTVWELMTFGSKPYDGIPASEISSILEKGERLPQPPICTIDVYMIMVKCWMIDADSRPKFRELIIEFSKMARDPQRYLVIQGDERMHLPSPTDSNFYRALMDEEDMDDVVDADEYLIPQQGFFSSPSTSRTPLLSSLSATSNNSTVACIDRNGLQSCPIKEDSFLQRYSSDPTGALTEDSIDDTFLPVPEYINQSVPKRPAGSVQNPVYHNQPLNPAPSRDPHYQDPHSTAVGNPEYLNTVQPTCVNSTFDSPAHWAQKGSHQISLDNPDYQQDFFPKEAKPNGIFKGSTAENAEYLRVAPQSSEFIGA
Chain of EGFR L858R/T790M (LR/TM) (P00533 25-1210 T790M/L858R): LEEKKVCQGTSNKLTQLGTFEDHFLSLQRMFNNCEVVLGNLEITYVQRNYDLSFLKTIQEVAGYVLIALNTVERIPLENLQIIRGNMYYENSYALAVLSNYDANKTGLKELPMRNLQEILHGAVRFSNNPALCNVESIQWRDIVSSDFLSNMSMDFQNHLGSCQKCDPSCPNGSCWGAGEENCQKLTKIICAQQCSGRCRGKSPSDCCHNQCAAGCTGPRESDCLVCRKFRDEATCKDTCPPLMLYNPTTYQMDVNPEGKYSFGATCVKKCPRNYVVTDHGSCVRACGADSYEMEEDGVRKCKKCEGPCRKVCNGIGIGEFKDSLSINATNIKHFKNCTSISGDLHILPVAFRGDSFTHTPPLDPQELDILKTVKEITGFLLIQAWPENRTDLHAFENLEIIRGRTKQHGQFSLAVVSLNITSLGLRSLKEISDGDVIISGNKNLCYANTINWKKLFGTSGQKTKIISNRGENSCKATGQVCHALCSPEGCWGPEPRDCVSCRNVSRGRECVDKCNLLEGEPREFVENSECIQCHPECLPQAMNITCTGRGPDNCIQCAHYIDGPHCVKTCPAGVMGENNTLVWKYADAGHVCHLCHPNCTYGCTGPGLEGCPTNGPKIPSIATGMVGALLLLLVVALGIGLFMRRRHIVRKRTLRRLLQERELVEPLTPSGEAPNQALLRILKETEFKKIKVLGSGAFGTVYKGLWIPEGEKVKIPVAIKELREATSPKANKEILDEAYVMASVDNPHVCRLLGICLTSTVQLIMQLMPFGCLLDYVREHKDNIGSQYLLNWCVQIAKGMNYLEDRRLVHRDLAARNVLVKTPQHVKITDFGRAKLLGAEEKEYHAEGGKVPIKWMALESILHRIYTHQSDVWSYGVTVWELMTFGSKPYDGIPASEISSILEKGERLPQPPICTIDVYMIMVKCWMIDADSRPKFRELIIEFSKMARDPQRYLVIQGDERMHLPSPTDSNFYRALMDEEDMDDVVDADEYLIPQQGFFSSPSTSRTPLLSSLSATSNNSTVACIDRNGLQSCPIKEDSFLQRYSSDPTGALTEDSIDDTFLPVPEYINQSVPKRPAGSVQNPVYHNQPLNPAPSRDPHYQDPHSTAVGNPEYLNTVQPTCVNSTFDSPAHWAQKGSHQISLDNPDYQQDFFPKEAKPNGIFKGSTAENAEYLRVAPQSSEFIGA
T1 sequence (P00533 25-1210 T790M/C797S/L858R): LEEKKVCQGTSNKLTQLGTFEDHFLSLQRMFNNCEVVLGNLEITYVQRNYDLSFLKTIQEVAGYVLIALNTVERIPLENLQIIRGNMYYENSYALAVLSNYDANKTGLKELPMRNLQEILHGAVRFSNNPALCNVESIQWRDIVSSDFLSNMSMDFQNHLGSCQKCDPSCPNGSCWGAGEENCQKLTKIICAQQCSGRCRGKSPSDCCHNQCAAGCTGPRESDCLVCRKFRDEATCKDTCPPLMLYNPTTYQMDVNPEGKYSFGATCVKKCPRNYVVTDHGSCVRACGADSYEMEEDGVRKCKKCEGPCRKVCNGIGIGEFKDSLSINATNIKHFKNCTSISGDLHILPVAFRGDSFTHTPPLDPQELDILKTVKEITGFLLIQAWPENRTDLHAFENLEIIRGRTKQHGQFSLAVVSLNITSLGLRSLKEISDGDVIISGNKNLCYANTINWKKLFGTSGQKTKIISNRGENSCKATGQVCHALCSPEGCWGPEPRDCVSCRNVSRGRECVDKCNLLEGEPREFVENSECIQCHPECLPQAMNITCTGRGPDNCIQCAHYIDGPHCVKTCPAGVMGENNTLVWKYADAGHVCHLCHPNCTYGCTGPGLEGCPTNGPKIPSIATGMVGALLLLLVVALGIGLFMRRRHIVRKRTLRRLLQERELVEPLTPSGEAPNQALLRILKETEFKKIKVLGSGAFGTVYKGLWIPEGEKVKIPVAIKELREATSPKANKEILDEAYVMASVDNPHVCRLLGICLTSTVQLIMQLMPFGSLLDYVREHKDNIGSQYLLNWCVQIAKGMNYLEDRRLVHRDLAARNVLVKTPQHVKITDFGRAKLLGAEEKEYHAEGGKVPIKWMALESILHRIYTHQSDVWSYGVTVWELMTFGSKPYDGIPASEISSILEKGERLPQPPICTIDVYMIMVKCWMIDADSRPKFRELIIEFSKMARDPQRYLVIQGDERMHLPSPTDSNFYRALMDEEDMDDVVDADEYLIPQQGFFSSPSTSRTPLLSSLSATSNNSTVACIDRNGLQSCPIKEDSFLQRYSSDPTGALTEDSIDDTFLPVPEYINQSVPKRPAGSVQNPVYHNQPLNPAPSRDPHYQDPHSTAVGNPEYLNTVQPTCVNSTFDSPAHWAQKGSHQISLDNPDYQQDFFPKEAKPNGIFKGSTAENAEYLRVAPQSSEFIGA

IC50 (EGFR(WT)) [nM]	IC50 (EGFR L858R/T790M (LR/TM)) [nM]	IC50 [1] [nM]	melting point [°C]	Structure (SMILES)
59.9 ± 1.8	6630 ± 657	> 10000	–	COc1cc2c(Nc3ccc(NC(=O)c4ccccc4)cc3F)ncnc2cc1OCC1CCN(C)CC1 [Example 1]
53.7 ± 13.8	> 10000	> 10000	–	COc1cc2c(Nc3cc(NC(=O)c4ccccc4)ccc3F)ncnc2cc1OCC1CCN(C)CC1 [Example 2, N-(4-Fluoro-3-((6-methoxy-7-((1-methylpiperidin-4-yl)methoxy)quinazolin-4-yl)amino)phenyl)benamide]
3.7 ± 1.6	7560 ± 1200	> 10000	–	COc1cc2c(Nc3ccc(NC(=O)Cc4ccccc4)cc3F)ncnc2cc1OCC1CCN(C)CC1 [Example 3, N-(3-Fluoro-4-((6-methoxy-7-((1-methylpiperidin-4-yl)methoxy)quinazolin-4-yl)amino)phenyl)-2-phenylacetamide]
1350 ± 312	> 10000	> 10000	–	COc1cc2c(Nc3cc(NC(=O)Cc4ccccc4)ccc3F)ncnc2cc1OCC1CCN(C)CC1 [Example 4, N-(4-Fluoro-3-((6-methoxy-7-((1-methylpiperidin-4-yl)methoxy)quinazolin-4-yl)amino)phenyl)-2-phenylacetamide]
68.3 ± 13	1380 ± 235	> 10000	–	COc1cc2c(Nc3ccc(NC(=O)CC4Cc5ccccc5C4)cc3F)ncnc2cc1OCC1CCN(C)CC1 [Example 5]
1100 ± 180	3030 ± 689	> 10000	–	COc1cc2c(Nc3cc(NC(=O)CC4Cc5ccccc5C4)ccc3F)ncnc2cc1OCC1CCN(C)CC1 [Example 6, 2-(2,3-Dihydro-1H-inden-2-yl)-N-(4-fluoro-3-((6-methoxy-7-((1-methylpiperidin-4-yl)methoxy)quinazolin-4-yl)amino)phenyl)acetamide]
2.6 ± 1.3	4630 ± 825	5570 ± 1000	–	COc1cc2c(Nc3ccc(OCc4ccccc4)cc3)ncnc2cc1OCC1CCN(C)CC1 [Example 7, N-(4-(benzyloxy)phenyl)-6-methoxy-7-((1-methylpiperidin-4-yl)methoxy)quinazolin-4-amine]
7.7 ± 1.8	2560 ± 800	4810 ± 2920	199.6 to 199.8	COc1cc2c(Nc3ccc(NC(=O)C(C)c4ccccc4)cc3F)ncnc2cc1OCC1CCN(C)CC1 (stereo not drawn) [Example 9, N-(3-Fluoro-4-((6-methoxy-7-((1-methylpiperidin-4-yl)methoxy)quinazolin-4-yl)amino)phenyl)-2-phenylpropionamide]
23.1 ± 8.3	2030 ± 755	3190 ± 2500	196 to 196.2	COc1cc2c(Nc3ccc(NC(=O)C(c4ccccc4)C(C)C)cc3F)ncnc2cc1OCC1CCN(C)CC1 (stereo not drawn) [Example 10, N-(3-Fluoro-4-((6-methoxy-7-((1-methylpiperidin-4-yl)methoxy)quinazolin-4-yl)amino)phenyl)-3-methyl-2-phenylbutanamide]
5.6 ± 3.3	1000 ± 435	1300 ± 308	257 to 257.2	COc1cc2c(Nc3ccc(NC(=O)C(c4ccccc4)c4ccccc4)cc3F)ncnc2cc1OCC1CCN(C)CC1 [Example 11, N-(3-fluoro-4-((6-methoxy-7-((1-methylpiperidin-4-yl)methoxy)quinazolin-4-yl)amino)phenyl)-2,2-diphenyl]
1.3 ± 0.3	3.2 ± 0.8	14.5 ± 3.3	–	COc1cc2c(Nc3ccc(NC(=O)C(c4ccccc4)N4Cc5ccccc5C4=O)cc3F)ncnc2cc1OCC1CCN(C)CC1 (stereo not drawn) [Example 12]
7340 ± 2520	> 10000	> 10000	150.5 to 150.8	COc1cc2c(Nc3ccccc3P(C)(C)=O)ncnc2cc1OCC1CCN(C)CC1 [Example 13, (2-((6-methoxy-7-((1-methylpiperidin-4-yl)methoxy)quinazolin-4-yl)amino)phenyl)dimethyl phosphine oxide]
–	> 10000	> 10000	–	COc1cc2ncnc(Nc3ccc(NC(=O)c4ccccc4)cc3F)c2cc1OC [Example 15]
137 ± 80.2	> 10000	> 10000	–	COc1cc2ncnc(Nc3cc(NC(=O)c4ccccc4)ccc3F)c2cc1OC [Example 16]
16.1 ± 4.8	8.5 ± 0.7	37.1 ± 18.8	–	COc1cc2ncnc(Nc3ccc(NC(=O)C(c4ccccc4)N4Cc5ccccc5C4=O)cc3F)c2cc1OC (stereo not drawn) [Example 17]
1.3 ± 0.6	3.2 ± 1.3	14.5 ± 5.2	–	COc1cc2c(Nc3cc(NC(=O)C(c4ccccc4)N4Cc5ccccc5C4=O)ccc3F)ncnc2cc1OCC1CCN(C)CC1 (stereo not drawn) [Example 18]
27.1 ± 12	180 ± 94.9	361 ± 123	–	COc1cc2c(Nc3ccc(NC(=O)C(C4CCCCC4)N4Cc5ccccc5C4=O)cc3F)ncnc2cc1OCC1CCN(C)CC1 (stereo not drawn) [Example 21, 2-cyclohexyl-N-(3-fluoro-4-((6-methoxy-7-((1-methylpiperidin-4-yl)methoxy)quinazoline-4-yl)amino)phenyl)-2-(1-oxoisoindolin-2-yl)acetamide]
2 ± 0.5	6.7 ± 2.2	13.4 ± 2.7	–	COc1cc2c(Nc3ccc(NC(=O)C(c4cccc(F)c4)N4Cc5ccccc5C4=O)cc3F)ncnc2cc1OCC1CCN(C)CC1 (stereo not drawn) [Example 22, N-(3-Fluoro-4-((6-methoxy-7-((1-methylpiperidin-4-yl)methoxy)quinazolin-4-yl)amino)phenyl)-2-(3fluorophenyl)-2-(1-oxoisoindolin-2-yl)acetamide]
0.8 ± 0.3	2.4 ± 0.5	18 ± 8.6	–	COc1cc2ncnc(Nc3ccc(NC(=O)C(c4ccccc4)N4Cc5ccccc5C4=O)cc3F)c2cc1OCC1CCN(C)CC1 (stereo not drawn) [Example 23]
1 ± 0.2	4.8 ± 0.7	19.1 ± 4.6	–	COc1cc2ncnc(Nc3ccc(NC(=O)C(c4ccccc4)N4Cc5ccccc5C4=O)cc3F)c2cc1OCN1CCN(C)CC1 (stereo not drawn) [Example 24]
1.6 ± 0.3	7.3 ± 1.3	97.5 ± 12.9	–	COc1cc2ncnc(Nc3ccc(NC(=O)C(c4ccccc4)N4Cc5ccccc5C4=O)cc3F)c2cc1OCCCN1CCOCC1 (stereo not drawn) [Example 25, (3-Fluoro-4-((7-methoxy-6-(3-morpholinopropoxy)quinazolin-4-yl)amino)phenyl)-2-(1-oxoisoindolin-2-yl)-2-phenylacetamide]
0.7 ± 0.1	1.5 ± 0.2	8.5 ± 2.6	–	COCCOc1cc2ncnc(Nc3ccc(NC(=O)C(c4ccccc4)N4Cc5ccccc5C4=O)cc3F)c2cc1OCCOC (stereo not drawn) [Example 26, (4-((6,7-bis(2-methoxyethoxy)quinazolin-4-yl)amino)-3-fluorophenyl)-2-(1-oxoisoindolin-2-yl)-2-phenylacetamide]
388 ± 55.3	> 10000	> 10000	–	COc1cc2nc(N)nc(Nc3ccc(NC(=O)C(c4ccccc4)N4Cc5ccccc5C4=O)cc3F)c2cc1OC (stereo not drawn) [Example 27, (4-((2-amino-6,7-dimethoxyquinazolin-4-yl)amino)-3-fluorophenyl)-2-(1-oxoisoindoline-2-yl)-2-phenylacetamide]
2.5 ± 0.8	35.3 ± 12.1	27.5 ± 17.7	–	COc1cc2c(Nc3ccc(NC(=O)C(c4cc(F)ccc4F)N4Cc5ccccc5C4=O)cc3F)ncnc2cc1OCC1CCN(C)CC1 (stereo not drawn) [Example 28, 2-(2,5-Difluorophenyl)-N-(3-fluoro-4-((6-methoxy-7-((1-methylpiperidin-4-yl)methoxy)quinazolin-4-yl)amino)phenyl)-2-(1-oxoisoindolin-2-yl)acetamide]

Structure (SMILES)	IC50 (EGFR(WT)) [nM]	IC50 (EGFR L858R/T790M (LR/TM)) [nM]	IC50 [1] [nM]	melting point [°C]
COc1cc2c(Nc3ccc(NC(=O)[C@H](c4ccccc4)N4Cc5ccccc5C4=O)cc3F)ncnc2cc1OCC1CCN(C)CC1 [Example 19, (S)—N-(3-Fluoro-4-((6-methoxy-7-((1-methylpiperidin-4-yl)methoxy)quinazolin-4-yl)amino)phenyl)-2-(1-oxoisoindolin-2-yl)-2-phenylacetamide]	4.6 ± 2.8	8.6 ± 2.1	7.9 ± 2	–
COc1cc2c(Nc3ccc(NC(=O)[C@@H](c4ccccc4)N4Cc5ccccc5C4=O)cc3F)ncnc2cc1OCC1CCN(C)CC1 [Example 20, (R)—N-(3-Fluoro-4-((6-methoxy-7-((1-methylpiperidin-4-yl)methoxy)quinazolin-4-yl)amino)phenyl)-2-(1-oxoisoindolin-2-yl)-2-phenylacetamide]	3.5 ± 1	6.4 ± 1.6	19.2 ± 3.2	–

Source: patent US20210155604A1, “QUINAZOLINE COMPOUND SERVING AS EGFR TRIPLE MUTATION INHIBITOR AND APPLICATIONS THEREOF” (EAST CHINA UNIVERSITY OF SCIENCE AND TECHNOLOGY, priority 2018, published 2021)
